# Results: US8242251B2, “Unsymmetrical cyanine dimer compounds and their application” (Life Technologies Corporation, priority 2003, dated 2012)
# Legend:
# RNA versus DNA = assay: Screening of fluorescence properties and relative fluorescence enhancement with RNA versus DNA (Table 3); format: binding; details: for Fluorescence Enhancement Ratio (RNA/DNA): fluorescence enhancement when associated with RNA to that when associated with DNA
# [1] = tested on: Bovine pulmonary arterial endothelial cells; assay: Nucleic acid binding after RNase and DNase on methanol-fixed eukaryotic cells (Example 38); format: cell-based
# Experimental: (§1) Bovine pulmonary arterial endothelial cells were grown in media for one day after plating and then fixed ten minutes in 100% methanol at −20° C. Cells were washed 3×5 minutes in PBT (0.05M phosphate-buffered saline (PBS) containing 0.1% Triton X-100) and then treated with RNase (from Roche, at 1:500 dilution) or DNase (from Promega, at 1:100 dilution) for 2 hours at 37° C. Cells were washed again for 3×5 minutes in PBT and then labeled with Compound 6 at 687 nM concentration for 20 minutes. Cells were washed 3×10 minutes in PBS and mounted on microscope slides in ProLong antifade mounting medium. After the mountant had hardened, slides were examined on a Nikon Eclipse 800 upright fluorescent microscope and imaged with a FITC filter set, a Princeton Instrument MicroMax cooled CCD camera, and Universal Imaging MetaMorph imaging software. […] See, FIG. 4.
# [2] = tested on: Bovine pulmonary arterial endothelial cells; assay: Cell permeability and nucleic acid label pattern with a concentration series in live cells (Example 43); format: cell-based
# Experimental: Bovine pulmonary arterial endothelial cells were grown in media for one day after plating on coverslips, then labeled with 50 nM MitoTracker Red CMXRos (Molecular Probes, Inc., M7512) in Hank's balanced salt solution (HBSS) with HEPES for general mitochondrial labeling. After washing in HBSS, cells were then labeled with Compound 1 at various concentrations ranging from 100 nM up to 10 μM in media for 20 minutes at 37°. Cells were washed well with HBSS. Coverslips were examined mounted in warm HBSS on a Nikon Eclipse 800 upright fluorescent microscope and imaged with a FITC filter set, a Princeton Instruments MicroMax cooled CCD camera, and Universal Imaging MetaMorph imaging software. […] The mtDNA signal was localized within mitochondria, as evidenced by MitoTracker Red labeling.
# [3] = tested on: Bovine pulmonary arterial endothelial cells; assay: Nucleic acid binding on RNase and DNase treated formaldehyde-fixed eukaryotic cells (Example 39); format: cell-based; details: Compound 6 687 nM, Compound 19 1 μM
# Experimental: as §1, with “fixed fifteen” for “fixed ten”, “in 4% paraformaldehyde.” for “in 100% methanol at −20° C.”, “1:100 dilution), or both” for “1:100 dilution)”, “concentration or Compound 19 at 1 μM concentration in PBS” for “concentration”, “mounting medium (Molecular Probes, Inc.).” for “mounting medium.”, “FIG. 5.” for “FIG. 4.”
# [4] = tested on: Gram-positive (Staphylococcus aureus) and Gram-negative (Eshcerichia coli) bacteria; assay: Rifampicin-depletion of bacterial RNA, flow cytometry and microplate reader (Example 37); format: cell-based; details: for fluorescent signal of rifampicin treated versus untreated bacteria: 25 μg/mL rifampicin one hour, compound 0.25, 0.5 or 1 μM, 10-15 minutes
# Experimental: Gram-positive (Staphylococcus aureus) and Gram-negative (Eshcerichia coli) bacteria in growth medium were treated with 25 μg/mL rifampicin for one hour. Treated and untreated bacteria were counted, diluted to 1×10^7 bacteria/mL in 0.85% NaCl, and 1 mL aliquots incubated with 0.25 μM, 0.5 μM, or 1 μM Compound 6 or Compound 9 for 10-15 minutes protected from light. The samples were analyzed by flow cytometry and then 100 μL volumes were transferred to a microplate in triplicate and analyzed by a microplate reader. The fluorescence intensity was corrected against the dye in solution, which was weakly fluorescent.
# [5] = tested on: Bovine pulmonary arterial endothelial cells; assay: Nucleic acid binding in live eukaryotic cells followed by fixing of cells (Example 40); format: cell-based
# Experimental: Bovine pulmonary arterial endothelial cells were grown in media for one day after plating and then labeled before fixing with 687 nM Compound 6 for 20 minutes. Some cells were rinsed in media and separated for live imaging. The other cells were rinsed twice with media and then fixed in 4% paraformaldehyde for 15 minutes at room temperature, 0.5% glutaraldehyde for 5 minutes at room temperature, or 100% methanol for 10 minutes at −20° C. Cells were washed 3×10 minutes in phosphate-buffered saline and mounted on microscope slides in ProLong antifade mounting medium (Molecular Probes, Inc.). After the mountant had hardened, slides were examined on a Nikon Eclipse 800 upright fluorescent microscope and imaged with a FITC filter set, a Princeton Instrument MicroMax cooled CCD camera, and Universal Imaging MetaMorph imaging software. […] Fixation with either paraformaldehyde or glutaraldehyde removed all mitochondrial labeling. Nucleolar label remained, but nuclear label increased. […] Methanol-fixation had good nucleolar labeling, with only a slight increase in nuclear labeling. All mitochondrial labeling was removed. Cytoplasmic label increased slightly, but not nearly to the extent seen with other fixation. Results generally indicate that methanol-fixation is the recommended fixation technique.
# [6] = tested on: Bovine pulmonary arterial endothelial cells; assay: Nucleic acid binding in methanol-fixed eukaryotic cells (Example 42); format: cell-based
# Experimental: Bovine pulmonary arterial endothelial cells were grown in media for one day after plating on coverslips and then fixed 10 minutes in −20° C. 100% methanol. Cells were washed 3×5 minutes 50 mM phosphate buffered saline (PBS), pH 7.3. Cells were labeled with Compound 11 at 5 μM, 1 μM, or 500 nM concentration in PBS for 20 minutes, washed 3×10 minutes in PBS, and mounted in ProLong antifade mountant (Molecular Probes, Inc.). Cells were labeled with Compound 6 at 500 nM in PBS for 20 minutes. After the mountant had hardened, slides were examined on a Nikon Eclipse 800 upright fluorescent microscope and imaged with a blue-green filter set, a Princeton Instruments MicroMax cooled CCD camera, and Universal Imaging MetaMorph imaging software. Comparison of emission wavelength was made using a Zeiss 510 confocal microscope utilizing a META spectral unmixing system. […] Optimal labeling for both compounds appeared to be about […]. […] See, FIG. 6.
# [7] = methanol fixed cells, cytoplasm, nucleus and nucleolus (FIG. 4)
# [8] = methanol-fixed, compound 687 nM
# [9] = methanol-fixed, compound 687 nM, by eye
compound,measurement,setting,value
C[n+]1c(/C=C2\C=C(N3CCNCCN(C4=C/C(=C\c5sc6ccccc6[n+]5C)c5ccccc5N4c4ccccc4)CCNCC3)N(c3ccccc3)c3ccccc32)sc2ccccc21.[Cl-].[Cl-] [Compound 15],Fluorescence Enhancement Ratio (DNA/RNA),RNA versus DNA; fluorescence enhancement when associated with DNA to that when associated with RNA,3.7
"N=C(N)c1ccc(-c2cc3ccc(C(=N)N)cc3[nH]2)cc1 [DAPI, reference compound]",label intensity of DNA label control after nuclease treatment,"[1]; control to test the activity of the DNase, printed as treated with RNase",significant decline in label intensity
C[n+]1c(/C=C2\C=C(SCCCCCCCCCSC3=C/C(=C\c4sc5ccccc5[n+]4C)c4ccccc4N3c3ccccc3)N(c3ccccc3)c3ccccc32)sc2ccccc21 [Compound 1],Fluorescence Enhancement Ratio (RNA/DNA),RNA versus DNA,1.0
same,staining pattern at 1 μM,[2]; 20 minutes at 37°,nuclear labeling was seen as well as mtDNA
same,staining pattern at 3 μM or higher,[2]; 20 minutes at 37°,"mtDNA labeling was lost, replaced with ubiquitous cytoplasmic labeling and strong nuclear labeling"
same,staining pattern at 100 nM to 500 nM,"[2]; 20 minutes at 37°, MitoTracker Red co-label","mitochondrial DNA (mtDNA), with no nuclear label, or cytoplasmic background"
same,concentration at which mitochondrial morphology was disrupted,[2]; as evidenced with MitoTracker Red,≥ 3 μM
COc1ccc2c(c1)N(c1ccccc1)C(N1CCN(C3=C/C(=C\c4sc5ccccc5[n+]4C)c4ccc(OC)cc4N3c3ccccc3)CC1)=C/C2=C\c1sc2ccccc2[n+]1C.[I-].[I-] [Compound 19],Fluorescence Enhancement Ratio (RNA/DNA),RNA versus DNA,4.9
same,cytoplasmic label after DNase,[3],not reduced at all
same,cytoplasmic label after RNase,[3],not reduced at all
same,labeling of nucleoli after RNase,[3],eliminated
same,nuclear labeling after DNase,[3],not DNase
same,nuclear labeling after RNase,[3],significantly reduced with RNase
same,nucleolar intensity after DNase,[3],significantly reduced
C[n+]1c(/C=C2\C=C(N(CCC[N+](C)(C)C)CCC[N+](C)(C)C)N(CCCCCCCCCCN3C(N(CCC[N+](C)(C)C)CCC[N+](C)(C)C)=C/C(=C\c4sc5ccccc5[n+]4C)c4ccccc43)c3ccccc32)sc2ccccc21.Cl.Cl [Compound 13],Fluorescence Enhancement Ratio (RNA/DNA),RNA versus DNA,2.5
CN1/C(=C\c2ccn(-c3ccccc3)/c(=N\N3CCN(/N=c4/cc(/C=C5/Sc6ccccc6N5C)c5ccccc5n4-c4ccccc4)CC3)c2)Sc2ccccc21 [Compound 25],Fluorescence Enhancement Ratio (RNA/DNA),RNA versus DNA,5.6
CN1/C(=C\c2c/c(=N/N3CCN(/N=c4/cc(/C=C5/Sc6ccccc6N5C)c5ccccc5n4-c4ccccc4)CC3)n(-c3ccccc3)c3ccccc23)Sc2ccccc21 [Compound 9],Fluorescence Enhancement Ratio (RNA/DNA),RNA versus DNA,1.7
same,fluorescent signal of rifampicin treated versus untreated bacteria,[4],decrease in fluorescent signal after removal of mRNA
C[n+]1c(/C=C2\C=C(Sc3nnc(SC4=C/C(=C\c5sc6ccccc6[n+]5C)c5ccccc5N4c4ccccc4)s3)N(c3ccccc3)c3ccccc32)sc2ccccc21.[Cl-].[Cl-] [Compound 7],Fluorescence Enhancement Ratio (RNA/DNA),RNA versus DNA,2.3
CN1/C(=C\c2c/c(=N/C3CCC(/N=c4/cc(/C=C5/Sc6ccccc6N5C)c5ccccc5n4-c4ccccc4)CC3)n(-c3ccccc3)c3ccccc23)Sc2ccccc21 (centres unmarked) [Compound 8],Fluorescence Enhancement Ratio (RNA/DNA),RNA versus DNA,4.9
C[n+]1c(/C=C/C=C2/C=CN(c3ccccc3)C(N3CCN(C4=C/C(=C\C=C\c5sc6ccccc6[n+]5C)C=CN4c4ccccc4)CC3)=C2)sc2ccccc21 [Compound 18],Fluorescence Enhancement Ratio (RNA/DNA),RNA versus DNA,1.3
C[n+]1c(/C=C2\C=C(N3CCN(C4=C/C(=C\c5sc6ccccc6[n+]5C)c5ccccc5N4c4ccccc4)CC3)N(c3ccccc3)c3ccccc32)sc2ccccc21.[Cl-].[Cl-] [Compound 6],Fluorescence Enhancement Ratio (RNA/DNA),RNA versus DNA,7.0
same,signal intensity of DNase treated cells,[1]; [7],no decrease in signal intensity
same,signal intensity of RNase treated cells,[1]; [7],significant reduction in signal intensity
same,nuclear labeling after DNase,[1]; [8],not DNase
same,nuclear labeling after RNase,[1]; [8],significantly reduced by RNase
same,nucleolar intensity after DNase,"[1]; methanol-fixed, compound 687 nM, DNase 2 hours 37° C.",did not significantly affect
same,labeling of nucleoli after RNase,"[1]; methanol-fixed, compound 687 nM, RNase 2 hours 37° C.",eliminated
same,cytoplasmic label after DNase,[1]; [9],not DNase
same,cytoplasmic label after RNase,[1]; [9],reduced by RNase
same,labeling pattern in live cells,"[5]; 687 nM, 20 minutes, live imaging","strong nucleolar label, strong punctate labeling in mitochondria consistent with mtDNA, and dimmer ubiquitous mitochondrial labeling"
same,labeling pattern after fixation with paraformaldehyde or glutaraldehyde,"[5]; labeled live at 687 nM, then 4% paraformaldehyde or 0.5% glutaraldehyde","removed all mitochondrial labeling. Nucleolar label remained, but nuclear label increased. General cytoplasmic labeling also increased significantly"
same,labeling pattern after methanol-fixation,"[5]; labeled live at 687 nM, then 100% methanol 10 minutes −20° C.","good nucleolar labeling, with only a slight increase in nuclear labeling. All mitochondrial labeling was removed. Cytoplasmic label increased slightly"
same,fluorescent signal of rifampicin treated versus untreated bacteria,[4],decrease in fluorescent signal after removal of mRNA
same,signal intensity on RNA versus DNA in S. aureus cells with and without rifampicin,"[4]; S. aureus, compound 0.25, 0.5 and 1 μM",stronger signal intensity when bound to RNA
same,cytoplasmic label after DNase,[3],significantly reduced by both RNase and DNase
same,cytoplasmic label after RNase,[3],significantly reduced by both RNase and DNase
same,labeling of nucleoli after RNase,[3],eliminated
same,nuclear labeling after DNase,[3],significantly reduced by both RNase and DNase
same,nuclear labeling after RNase,[3],significantly reduced by both RNase and DNase
same,nucleolar intensity after DNase,[3],significantly reduced
same,concentration of peak emission in detection of intracellular nucleic acid,[6]; FIG. 6,500 nM
same,optimal labeling concentration,[6]; methanol-fixed cells,about 500 μM
same,staining pattern,"[6]; methanol-fixed, Compound 11 5 μM, 1 μM or 500 nM, Compound 6 500 nM, 20 minutes","strong nucleolar and cytoplasmic labeling, with dimmer nuclear labeling, indicating selective RNA staining"
